Measured values from patent publication US20010036955A1, “Method of inhibiting angiogenesis” (Genentech, Inc., priority 1998, published 2001).

Columns and labels:
Experiment in all cases: Real time RT-PCR (Taqman) assay in HUVEC
Format in all cases: cell-based, human
Flk/KDR mRNA = settings: HUVEC in three dimensional collagen gels; VEGF, bFGF, PMA; 10:M 15d-PGJ2
Procedure: (§1) This technique has been used to quantitatively monitor mRNA expression and has been described in detail previously (Heid, C. A. et al., (1996) Genome Methods 6:986-994; Gerber, H. et al., (1997) J. Biol. Chem. 272:23659-23667). Total RNA was extracted from HUVEC cultured in three dimensional collagen gels or on collagen-coated flasks for various times in 1× basal medium consisting of M199 supplemented with 1%FBS, 1× ITS, 2 mM L-glutamine, 50 μg/ml ascorbic acid, 26.5 mM NaHCO3, 100 U/ml penicillin and 100 U/ml streptomycin supplemented with 40 ng/ml bFGF (basic fibroblast growth factor), 40 ng/ml VEGF and 80 nM PMA […]. […] The primers and probes used were as follows: […] forward primer 5′-[…]-3′ (SEQ ID NO: 7), reverse primer 5′-CACCATCGCGACCAGATG-3′ (SEQ ID NO: 8), and probe 5′-[…]-3′ (SEQ ID NO: 9); […] forward primer 5′-TGACCTGCGGCAACTGG-3′ (SEQ ID NO: 10), reverse primer 5′-[…]-3′ (SEQ ID NO: 11), and probe 5′-[…]-3′ (SEQ ID NO: 12); human PPARβ gene forward primer 5′-[…]-3′ (SEQ ID NO: 13), reverse primer 5′-[…]-3′ (SEQ ID NO: 14), and probe 5′-[…]-3′ (SEQ ID NO: 15); human Flk/KDR gene forward primer 5′-[…]-3′ (SEQ ID NO: 16), reverse primer 5′-[…]-3′ (SEQ ID NO: 17), and probe 5′-[…]-3′ (SEQ ID NO: 18); human Flt-1 gene forward primer 5′-[…]-3′ (SEQ ID NO: 19), reverse primer 5′-[…]-3′ (SEQ ID NO: 20), and probe 5′-[…]-3′ (SEQ ID NO: 21); human uPA gene forward primer 5′-[…]-3′ (SEQ ID NO: 22), reverse primer 5′-GCGCACACCTGCCCTC-3′ (SEQ ID NO: 23), and probe 5′-[…]-3′ (SEQ ID NO: 24); human PAI-1 gene forward primer 5′-TCGTCCAGCGGGATCTGA-3′ (SEQ ID NO: 25), reverse primer 5′-GTGCTCCGGAACAGCCTG-3′ (SEQ ID NO: 26), and probe 5′-[…]-3′ (SEQ ID NO: 27); human glyceraldehyde-3-phosphate dehydrogenase (GAPDH) gene forward 5′-GAAGGTGAAGGTCGGAGTC-3′ (SEQ ID NO: 28), reverse 5′-[…]-3′ (SEQ ID NO: 29), and probe 5′-[…]-3′ (SEQ ID NO: 30). Total RNA (100 ng) was added to a 50 μl RT-PCR reaction mixture according to the manufacturer's protocol (Roche Molecular Systems, Inc., Branchburg, N.J.). The thermal cycling conditions included 1 cycle at 48° C. for 30 min, 1 cycle at 95° C. for 10 min, 40 cycles at 95° C. for 15 s, at 60° C. for 1 min and finally hold at 25° C. for 2 min. Standard curves for expression of each gene were generated by serial dilution of the total RNA isolated from HUVEC. […] Therefore, the relative mRNA expression of each gene was normalized to the level of GAPDH in the same RNA preparation.

Flt-1 mRNA = settings: HUVEC in three dimensional collagen gels; VEGF, bFGF, PMA; 10:M 15d-PGJ2
Procedure: as §1

PAI-1 mRNA = settings: at 24 hr; HUVEC in three dimensional collagen gels; 10:M 15d-PGJ2
Procedure: as §1

uPA mRNA = settings: at 4 hr; HUVEC in three dimensional collagen gels; 10:M 15d-PGJ2
Procedure: as §1

CCCCC/C=C/C=C1/C(=O)C=CC1C/C=C\CCCC(=O)O (stereo not shown) [15d-PGJ2, 15-deoxy-delta^12,14-PGJ2]
KDR mRNA induction by growth factors (Flk/KDR mRNA): inhibited the induction | Flt-1 mRNA induction by growth factors (Flt-1 mRNA): inhibited the induction | PAI-1 gene expression (PAI-1 mRNA): increased | uPA mRNA (uPA mRNA): reduced
